Data as given in publication PMC9995905, “Characteristics of antimicrobial peptide OaBac5mini and its bactericidal mechanism against Escherichia coli” (Frontiers in Veterinary Science, 2023).
Entries after “also recorded” stand apart in the source; their conditions may differ. Where no end group is shown, it is not given here.

Assays:
E. coli ATCC 25922 ΔsbmA = conditions: two-fold broth microdilution, CLSI; three independent occasions; sbmA deletion mutant
Description: The method described by Datsenko and Wanner was used for chromosomal gene deletion ([20]). […] The PCR fragment (1,567 bp) was purified, digested with DpnI, repurified and transferred into E. coli ATCC 25922 by electroporation, in which the Red recombinase expression plasmid pKD46 was previously transformed and induced by L-arabinose. Transformants were selected on Luria-Bertani (LB) agar containing 50 μg/ml of kanamycin at 37°C. The inserted sequence was amplified from the kanamycin-resistant strains by using the primers SBMF: 5′-[…]-3′ and SBMR: 5′-[…]-3′ which is located outside of inactivated gene. The length of the PCR product of sbmA using the primers set SBMF and SBMR in E. coli ATCC 25922 is 1,404 bp. When sbmA is successfully inactivated, the PCR product (2,198 bp) was amplified and sequenced for the verification of the gene deletion.
MICs of OaBac5mini, amoxicillin, kanamycin, florfenicol and tetracycline were determined using the two-fold broth microdilution method according to the Clinical and Laboratory Standards Institute (CLSI) guidance ([21]). MIC values of the tested antibacterial agents were determined on three independent occasions. Escherichia coli ATCC 25922 was used as the quality control in all the susceptibility tests.

E. coli ATCC 25922 [1] = experiment: Permeability of the outer membrane (NPN uptake); type: cell-based, Escherichia coli; conditions: 25, 50, 100 and 200 μg/ml; 10 μM NPN; 60 min; P < 0.01; n = 3
Description: The NPN uptake assay was conducted following the instructions of […] and […] ([25]) with minor modifications. In brief, E. coli. […] Fluorescence units were monitored immediately using INFINITE 200 PRO (Infinite® 2000, TECAN, Austria) at the excitation wavelength of 350 nm and emission wavelength of 420 nm for 100 min at 5 min intervals. Experiments were performed in biological triplicate.

proteinase K = biological target: T1, proteinase K (Parengyodontium album, UniProt P06873); experiment: Digestive enzyme sensitivity (inhibition zone assay); type: in vitro ADME; conditions: 100 μg/ml protease K, 37°C, 3 h; 50 μg/ml peptide; inhibition zone assay against E. coli ATCC 25922; repeated three times
T1 construct: purchased Solarbio, China
Text: (§1) All experiments were repeated three times.

pepsin = biological target: T2, pepsin (Sus scrofa, UniProt P00791); experiment: as above; type: in vitro ADME; conditions: 100 μg/ml pepsin in pH 2 sterile water, 37°C, 3 h; 50 μg/ml peptide; inhibition zone assay against E. coli ATCC 25922; repeated three times
T2 construct: purchased sigma, USA
Text: as §1

trypsin = experiment: as above; conditions: 37°C, 3 h, 50 μg/ml peptide, inhibition zone assay against E. coli ATCC 25922, repeated three times
Description: The sensitivities of OaBac5mini to different pH, temperature, digestive enzymes, and repeated freeze-thawing conditions were determined using the inhibition zone assay as previously described ([23]). For pH sensitivity, OaBac5mini was diluted with each solution whose pH was individually adjusted to 2, 3, 4, 5, 6, 7, 8, 9, 10, 11 with HCl or NaOH, and incubated for 2 h, followed by adjusting the pH to 7 to end the reaction. For temperature sensitivity, the diluted peptide was incubated at 30, 40, 50, 60, 70, 80, 90, and 100°C for 30 min. To determine the digestive enzymes sensitivity, OaBac5mini was incubated with 100 μg/ml pepsin (in pH 2 sterile water, sigma, USA), 5–100 μg/ml trypsin (in pH 6.8 KH2PO4 buffer, sigma, USA) and 100 μg/ml protease K (Solarbio, China) at 37°C for 3 h, respectively. To end the reaction after incubation, the pepsin buffer was adjusted to pH 8, the trypsin solution and protease K solution were incubated at 95°C for 10 min. For repeated freeze-thawing sensitivity, OaBac5mini was frozen and then thawed at room temperature 0–12 times. All the final concentrations of OaBac5mini in sensitivity tests were 50 μg/ml. All experiments were repeated three times.

E. coli ATCC 25922 [2] = experiment: Time-kill curve; type: cell-based, Escherichia coli; conditions: MH broth, 37°C, 5×10^5 CFU/ml, triplicate
Description: To investigate the time-kill effect of OaBac5mini against E. coli ATCC 25922, bacteria (5×10^5 CFU/ml) were cultured in fresh Mueller-Hinton (MH) broth (Yashi Organisms, China) with different concentrations of OaBac5mini (0, 50, 100, and 200 μg/ml) at 37°C with shaking at the speed of 220 rpm. Equal amounts (100 μl) of E. coli ATCC 25922 from each sample were withdrawn at 0, 2, 4, 6, 8, 10, 12, and 24 h, diluted with Luria-Bertani (LB) broth (Solarbio, China) and plated onto LB agar plates. Plates were placed at 37°C for 18 h for the CFU counts.

T2 sequence (P00791 60-385): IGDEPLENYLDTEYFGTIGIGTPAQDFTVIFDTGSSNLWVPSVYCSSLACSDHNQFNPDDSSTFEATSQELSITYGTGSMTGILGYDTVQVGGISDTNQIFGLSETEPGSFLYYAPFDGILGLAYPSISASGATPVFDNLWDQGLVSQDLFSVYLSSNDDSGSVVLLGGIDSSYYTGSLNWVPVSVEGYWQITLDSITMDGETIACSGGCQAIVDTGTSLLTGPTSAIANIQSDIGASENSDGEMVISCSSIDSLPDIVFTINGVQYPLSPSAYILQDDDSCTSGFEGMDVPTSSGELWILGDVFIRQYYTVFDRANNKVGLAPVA
T1 sequence (P06873 106-384): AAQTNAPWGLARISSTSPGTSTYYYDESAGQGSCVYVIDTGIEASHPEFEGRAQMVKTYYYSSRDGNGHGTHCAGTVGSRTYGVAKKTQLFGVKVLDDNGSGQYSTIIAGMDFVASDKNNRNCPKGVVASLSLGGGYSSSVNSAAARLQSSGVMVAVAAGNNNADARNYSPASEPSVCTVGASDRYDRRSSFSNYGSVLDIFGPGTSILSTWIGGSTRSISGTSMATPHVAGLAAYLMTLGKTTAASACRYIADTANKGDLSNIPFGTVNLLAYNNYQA

RFRPPIRRPPIRPPFRPPFRPPVR [OaBac5mini]
MIC against E. coli ATCC 25922 ΔsbmA (E. coli ATCC 25922 ΔsbmA): 100 µg/mL | Average fluorescence intensity of NPN (outer membrane permeability) compared with the negative control (E. coli ATCC 25922 [1]): significantly increased | Antibacterial activity after treatment with proteinase K (proteinase K): stable antibacterial activity; also recorded: no significant effect | Antibacterial activity after treatment with pepsin (pepsin): stable antibacterial activity; also recorded: not significantly affected | Antibacterial activity after treatment with trypsin 20 to 100 μg/ml (trypsin; trypsin 20 to 100 μg/ml in pH 6.8 KH2PO4 buffer): completely lost activity | Antibacterial activity after treatment with trypsin at low concentrations (trypsin; trypsin ≤ 10 μg/ml (< 20 μg/mL) in pH 6.8 KH2PO4 buffer): stable antibacterial activity; also recorded: no significant effect | Time-kill effect at 50 μg/ml (2 × MIC) (E. coli ATCC 25922 [2]; 50 μg/ml, 24 h): the number of bacteria remained stable in the first co-incubation for 8h before it increased | Time-kill effect at 100 μg/ml (E. coli ATCC 25922 [2]; 100 μg/ml, 24 h): decrease after co-incubation for 12 h and increase in further co-incubation for 12 h | Time-kill effect at 200 μg/ml (8 × MIC) (E. coli ATCC 25922 [2]; 200 μg/ml, co-incubation for 12 h): could effectively kill; also recorded: effectively killed
